In US4493838A, “Medicaments containing derivatives of 3-chloro-quinoline” (Pharmindustrie, priority 1980, dated 1985):
pKd, pKi: −log10 of the molar value.

Target: cerebral receptor sites of the benzodiazepines
Assay: Affinity for the cerebral receptor sites of the benzodiazepines (displacement of 3H-Diazepam, method of Mohler et al.)
Conditions: displacement of 3H-Diazepam from its binding site; Ki calculated from IC50, C and KD
Excerpt: The products have been tested according to the method of Mohler et al., Life Science, 1977, 20, 2101, which is relied on herein.

In order of falling pKi:
1. Clc1c(-c2ccccc2)nc2ccccc2c1CCC1CCNCC1 [Example 5, 2-Phenyl-3-chloro-4-[2-(4-piperidyl)-ethyl]-quinoline]  6.30
2. Cc1nc2ccccc2c(CCC2CCNCC2)c1Cl [Example 4, 2-Methyl-3-chloro-4-[2-(4-piperidyl)-ethyl]-quinoline]  6.00
3. Clc1cnc2ccccc2c1CCC1CCNCC1 [Example 1, 3-Chloro-4-[2-(4-piperidyl)-ethyl]-quinoline]  5.70
4. Clc1cnc2ccccc2c1CC1CCNCC1 [Example 6, 3-Chloro-4-[(4-piperidyl)-methyl]-quinoline]  5.30
5. Clc1cc2ccccc2nc1CCC1CCNCC1 [Example 9, 3-Chloro-2-[2-(4-piperidyl)-ethyl]-quinoline]  5.30
6. Cc1cccc2c(CC3CCNCC3)c(Cl)cnc12 [Example 8, 3-Chloro-8-methyl-4-[(4-piperidyl)-methyl]-quinoline]  5.00
7. COc1ccc2ncc(Cl)c(CCC3CCNCC3)c2c1 [Example 3, 3-Chloro-6-methoxy-4-[2-(4-piperidyl)-ethyl]-quinoline]  4.92

Target: cerebral receptor sites of the benzodiazepines
Assay: not given
Conditions: 3H-Diazepam; constant used in the formula for Ki; read-out: KD (constant of affinity); cited from earlier work

In the case of `CN1C(=O)CN=C(c2ccccc2)c2cc(Cl)ccc21` [3H Diazepam], the pKd is given as 5.56.
